# Laboratory results: patent US20040038419A1, “Assays and kits for detecting the presence of nitriles and/or cyanide” (priority 2002, published 2004)
# Experiments:
# Format in all cases: biochemical
# Settings in all cases: lyophilized nitrilase lysate added; OPA or NDA as fluorogenic reagent
# [1] = tested on: nitrilase of SEQ ID NO: 56; assay: OPA/NDA fluorescence assay of nitrile hydrolysis by nitrilase
# Source text: (§1) FIG. 5C illustrates detection curves for hydroxylpivaldehyde aminonitrile (HPA), HPA combined with a nitrilase of SEQ ID NO: 56(“HPA+SEQ ID NO: 56”), dimethylbutanal aminonitrile (DMB), and DMB combined with a nitrilase of SEQ ID NO: 60 (“DMB+SEQ ID NO: 60”), all using OPA as the fluorogenic reagent.
# (§2) FIG. 5D illustrates detection curves for HPA, HPA combined with a nitrilase of SEQ ID NO: 56 (“HPA+SEQ ID NO: 56”), DMB, and DMB combined with a nitrilase of SEQ ID NO: 60 (“DMB+SEQ ID NO: 60”), all using NDA as the fluorogenic reagent.
# (§3) In assays using certain substrates, naphthalene dicarboxaldehyde (NDA) was substituted for OPA as the fluorescing agent. Calibration curves for APA, PAH, HPA and DMB, with either OPA or NDA were constructed (see FIGS. 5A, 5B, 5C and 5D). To determine sensitivity and background fluorescence, lyophilized nitrilase lysates with SEQ ID NOS: 190, 56, and 60 were added, respectively.
# [2] = tested on: nitrilase of SEQ ID NO: 60; assay: as above
# Source text: as §1, §2, §3
# [3] = tested on: nitrilase having SEQ ID NO: 190; assay: OPA/NDA fluorescence assay of nitrile hydrolysis by lyophilized nitrilase lysate
# Source text: FIG. 5A illustrates detection curves for assays of pivaldehyde aminonitrile (PAH), PAH combined with a lyophilized nitrilase lysate having a SEQ ID NO: 190 (“PAH+SEQ ID NO: 190”), acetophenone aminonitrile (APA), and APA combined with a lyophilized nitrilase lysate having a SEQ ID NO: 190 (“APA+SEQ ID NO: 190”), all using OPA as the fluorogenic reagent.
# FIG. 5B illustrates detection curves for PAH, PAH combined with a lyophilized nitrilase lysate having a SEQ ID NO: 190 (“PAH+SEQ ID NO: 190”), APA, and APA combined with a lyophilized nitrilase lysate having a SEQ ID NO: 190 (“APA+SEQ ID NO: 190”), all using naphthalene dicarboxyaldehyde (NDA) as the fluorogenic reagent.
# as §3
molecule,measurement,setting,value
"CC(C)(CO)C(N)C#N (stereo not drawn) [HPA, hydroxylpivaldehyde aminonitrile]",hydrolysis of the enzyme substrate,[1],Hydrolysis was detected
dimethylbutanal aminonitrile [DMB],hydrolysis of the enzyme substrate,[2],Hydrolysis was detected
"CC(N)(C#N)c1ccccc1 (stereo not drawn) [APA, acetophenone aminonitrile]",hydrolysis of the enzyme substrate,[3],Hydrolysis was detected
